# In ChEMBL document CHEMBL1201862, “PubChem BioAssay data set” (2004):
#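 A five-concentration, 48-hour dose response in 96-well plates underlies each endpoint, interpolated linearly between surrounding concentrations. GI50 is the concentration that inhibits growth by half.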 The source made the active and inactive calls. No stated cut-off is given here; in the data, active = GI50 up to about 1.1 µM and inactive = higher.
# Key:
# Assay in all cases: DTP human tumour cell line panel, 48 h
# TK-10 = test system: TK-10
# HOP-92 = test system: HOP-92
# SF-539 = test system: SF-539
# SF-268 = test system: SF-268
# MDA-MB-231 = test system: MDA-MB-231
# CAKI-1 = test system: CAKI-1
# M14 = test system: M14
# HT-29 = test system: HT-29
# UACC-257 = test system: UACC-257
# SNB-75 = test system: SNB-75
# LOX IMVI = test system: LOX IMVI
# OVCAR-4 = test system: OVCAR-4
# MDA-MB-435 = test system: MDA-MB-435
# A549 = test system: A549
# 786-0 = test system: 786-0
# OVCAR-5 = test system: OVCAR-5
# OVCAR-8 = test system: OVCAR-8
# Hs-578T = test system: Hs-578T
# ACHN = test system: ACHN
# UACC-62 = test system: UACC-62
# NCI/ADR-RES = test system: NCI/ADR-RES
# Malme-3M = test system: Malme-3M
# K562 = test system: K562
# SF-295 = test system: SF-295
# CCRF-CEM = test system: CCRF-CEM
# T47D = test system: T47D
# DU-145 = test system: DU-145
# U-251 = test system: U-251
# HCT-15 = test system: HCT-15
# SN12C = test system: SN12C
# A498 = test system: A498
# PC-3 = test system: PC-3
# SNB-19 = test system: SNB-19
# NCI-H460 = test system: NCI-H460
# NCI-H522 = test system: NCI-H522
# SK-MEL-2 = test system: SK-MEL-2
# KM12 = test system: KM12
# BT-549 = test system: BT-549
# MOLT-4 = test system: MOLT-4
# SK-MEL-28 = test system: SK-MEL-28
# SK-MEL-5 = test system: SK-MEL-5
# RXF 393 = test system: RXF 393
# EKVX = test system: EKVX
# IGROV-1 = test system: IGROV-1
# HCT-116 = test system: HCT-116
# RPMI-8226 = test system: RPMI-8226
# NCI-H226 = test system: NCI-H226
# SW-620 = test system: SW-620
# MDA-N = test system: MDA-N
# HL-60 = test system: HL-60
# HOP-62 = test system: HOP-62
# SK-OV-3 = test system: SK-OV-3
# SR = test system: SR
# NCI-H23 = test system: NCI-H23
# MCF7 = test system: MCF7
# OVCAR-3 = test system: OVCAR-3
# COLO 205 = test system: COLO 205
# UO-31 = test system: UO-31
# HCC 2998 = test system: HCC 2998
smiles,measurement,setting,value
CN1CCc2c(sc3ncn(Nc4ccc(F)cc4)c(=N)c23)C1,GI50,TK-10,> 100 µM (inactive)
same,GI50,HOP-92,> 100 µM (inactive)
same,GI50,SF-539,> 100 µM (inactive)
same,GI50,SF-268,> 100 µM (inactive)
same,GI50,MDA-MB-231,> 100 µM (inactive)
same,GI50,CAKI-1,> 100 µM (inactive)
same,GI50,M14,> 100 µM (inactive)
same,GI50,HT-29,> 100 µM (inactive)
same,GI50,UACC-257,> 100 µM (inactive)
same,GI50,SNB-75,> 100 µM (inactive)
same,GI50,LOX IMVI,> 100 µM (inactive)
same,GI50,OVCAR-4,> 100 µM (inactive)
same,GI50,MDA-MB-435,> 100 µM (inactive)
same,GI50,A549,> 100 µM (inactive)
same,GI50,786-0,> 100 µM (inactive)
same,GI50,OVCAR-5,> 100 µM (inactive)
same,GI50,OVCAR-8,> 100 µM (inactive)
same,GI50,Hs-578T,> 100 µM (inactive)
same,GI50,ACHN,> 100 µM (inactive)
same,GI50,UACC-62,> 100 µM (inactive)
same,GI50,NCI/ADR-RES,> 100 µM (inactive)
same,GI50,Malme-3M,> 100 µM (inactive)
same,GI50,K562,> 100 µM (inactive)
same,GI50,SF-295,> 100 µM (inactive)
same,GI50,CCRF-CEM,> 100 µM (inactive)
same,GI50,T47D,> 100 µM (inactive)
same,GI50,DU-145,> 100 µM (inactive)
same,GI50,U-251,> 100 µM (inactive)
same,GI50,HCT-15,> 100 µM
same,GI50,SN12C,> 100 µM (inactive)
same,GI50,A498,> 100 µM (inactive)
same,GI50,PC-3,> 100 µM (inactive)
same,GI50,SNB-19,> 100 µM (inactive)
same,GI50,NCI-H460,> 100 µM (inactive)
same,GI50,NCI-H522,65 µM (inactive)
same,GI50,SK-MEL-2,> 100 µM (inactive)
same,GI50,KM12,> 100 µM (inactive)
same,GI50,BT-549,> 100 µM (inactive)
same,GI50,MOLT-4,> 100 µM (inactive)
same,GI50,SK-MEL-28,> 100 µM (inactive)
same,GI50,SK-MEL-5,> 100 µM (inactive)
same,GI50,RXF 393,> 100 µM (inactive)
same,GI50,EKVX,> 100 µM (inactive)
same,GI50,IGROV-1,> 100 µM (inactive)
same,GI50,HCT-116,> 100 µM (inactive)
same,GI50,RPMI-8226,> 100 µM (inactive)
same,GI50,NCI-H226,92 µM (inactive)
same,GI50,SW-620,> 100 µM (inactive)
same,GI50,MDA-N,> 100 µM (inactive)
same,GI50,HL-60,> 100 µM (inactive)
same,GI50,HOP-62,> 100 µM (inactive)
same,GI50,SK-OV-3,> 100 µM (inactive)
same,GI50,SR,> 100 µM (inactive)
same,GI50,NCI-H23,> 100 µM (inactive)
same,GI50,MCF7,> 100 µM (inactive)
same,GI50,OVCAR-3,> 100 µM (inactive)
COc1ccc(C(=C(I)c2ccccc2)c2ccc(OC)cc2)cc1,GI50,TK-10,> 100 µM (inactive)
same,GI50,HOP-92,> 100 µM (inactive)
same,GI50,SF-539,> 100 µM (inactive)
same,GI50,SF-268,> 100 µM (inactive)
same,GI50,COLO 205,> 100 µM (inactive)
same,GI50,MDA-MB-231,> 100 µM (inactive)
same,GI50,CAKI-1,> 100 µM (inactive)
same,GI50,M14,> 100 µM (inactive)
same,GI50,HT-29,7.23 µM (inactive)
same,GI50,UACC-257,> 100 µM (inactive)
same,GI50,LOX IMVI,> 100 µM (inactive)
same,GI50,OVCAR-4,> 100 µM (inactive)
same,GI50,MDA-MB-435,> 100 µM (inactive)
same,GI50,A549,> 100 µM (inactive)
same,GI50,786-0,> 100 µM (inactive)
same,GI50,OVCAR-5,> 100 µM (inactive)
same,GI50,OVCAR-8,> 100 µM (inactive)
same,GI50,Hs-578T,> 100 µM (inactive)
same,GI50,ACHN,> 100 µM (inactive)
same,GI50,UACC-62,> 100 µM (inactive)
same,GI50,NCI/ADR-RES,> 100 µM (inactive)
same,GI50,Malme-3M,> 100 µM (inactive)
same,GI50,K562,> 100 µM (inactive)
same,GI50,SF-295,> 100 µM (inactive)
same,GI50,CCRF-CEM,> 100 µM (inactive)
same,GI50,T47D,19.1 µM (inactive)
same,GI50,DU-145,> 100 µM (inactive)
same,GI50,U-251,> 100 µM (inactive)
same,GI50,HCT-15,65.6 µM
same,GI50,SN12C,> 100 µM (inactive)
same,GI50,PC-3,> 100 µM (inactive)
same,GI50,SNB-19,> 100 µM (inactive)
same,GI50,NCI-H460,> 100 µM (inactive)
same,GI50,NCI-H522,> 100 µM (inactive)
same,GI50,SK-MEL-2,> 100 µM (inactive)
same,GI50,KM12,> 100 µM (inactive)
same,GI50,BT-549,> 100 µM (inactive)
same,GI50,MOLT-4,> 100 µM (inactive)
same,GI50,UO-31,> 100 µM (inactive)
same,GI50,SK-MEL-28,> 100 µM (inactive)
same,GI50,SK-MEL-5,49.8 µM (inactive)
same,GI50,RXF 393,> 100 µM (inactive)
same,GI50,EKVX,> 100 µM (inactive)
same,GI50,IGROV-1,> 100 µM (inactive)
same,GI50,HCT-116,51.3 µM (inactive)
same,GI50,RPMI-8226,> 100 µM (inactive)
same,GI50,NCI-H226,> 100 µM (inactive)
same,GI50,SW-620,> 100 µM (inactive)
same,GI50,MDA-N,> 100 µM (inactive)
same,GI50,HL-60,64.9 µM (inactive)
same,GI50,HOP-62,> 100 µM (inactive)
same,GI50,SK-OV-3,> 100 µM (inactive)
same,GI50,SR,> 100 µM (inactive)
same,GI50,HCC 2998,> 100 µM (inactive)
same,GI50,NCI-H23,> 100 µM (inactive)
same,GI50,MCF7,21.6 µM (inactive)
same,GI50,OVCAR-3,> 100 µM (inactive)
